In patent US20240016943A1, “SYNTHETIC DNA BINDING DOMAINS AND USES THEREOF” (The University of Chicago, priority 2020, published 2024):
Values belong to the substance of their own block, whether it stands above or below them. Starred links: 1 amine or outer side, 2 acyl side, 3 side chain; linkers in the order of their positions; H or OH if unused. Positions of bridges follow the written chain, without caps; N, C: chain ends. Non-standard residues stand in square brackets, D forms with d. Chains are numbered I, II in the order given. X1 = O=C1CC([*:2])C(=O)N1CC(=O)[*:1]; S5 = C=CCCC[C@](C)(N)C(=O)O; Nle = CCCC[C@H](N)C(=O)O; Aib = CC(C)(N)C(=O)O

Legend:
[1] = test system: duplex DNA probes E1, E2, and E3; assay: DNA probe specificity EMSA; assay type: binding; conditions: STR69 1 μM, STR640 125 nM; for DNA motif specificity: B-Z 100 nM, probes E1, E2, E3
Protocol: (§1) For direct DNA binding experiments, STRs were serial diluted (3-fold increments) at 2× concentration in 20 μL of 1× binding buffer (20 mM HEPES pH 8.0, 150 mM NaCl, 5% glycerol, 1 mM EDTA, 2 mM MgCl2, 0.5 mg/mL BSA, 1 mM DTT, 0.05% NP-40). 20 μL of 10 nM IRD700-labeled E-box probe in 1× binding buffer was added and samples were incubated for 30 min at RT followed by 15 min at 4° C. 3.5 μL of each reaction was loaded on a 6% acrylamide, 0.5× TBE gel equilibrated to 4° C. Higher affinity compounds (e.g., STR116 and STR118) were run at 10-fold lower concentration of compound and 0.5 nM final concentration of IRD-labeled oligo. Electrophoresis was carried out for 60 min at 110 V and 4° C. with 0.5× TBE+1 mM MgCl2 running buffer. Gels were pre-run at 110 V for 60 min prior to sample loading. For specificity experiments, 25 nM STR116, 10 nM STR118, or 5 nM MAX, and 5 nM labeled E-box probe were incubated with 0, 5, 25, 125, or 625 nM unlabeled competitor oligo for 30 min at RT in binding buffer. For protein competition experiments, 1 nM TRD-Ebox oligo was added to a mixture of STR (0-1 mM) and 30 nM protein (MAX or MYC:MAX) and incubated for 30 minutes at room temperature in binding buffer. For DNA probe specificity experiments B-Z (100 nM), STR69 (1 μM), and STR640 (125 nM) and MAX (10 nM) were incubated with 1 nM IRD-labeled oligo and 0.01 mg/ml salmon sperm DNA for 30 minutes at RT in binding buffer. All samples were equilibrated to 4° C. for 15 minutes before loading onto 6% gel. Gels were imaged using an Odyssey Li-COR. ImageJ was used to quantify band intensity and fraction bound DNA was calculated by dividing band intensity of bound DNA by the band intensity of the free DNA from a vehicle treated lane. A four-parameter dose-response curve fit to a plot of normalized fraction bound DNA vs. log B-Z concentration yields an IC50 which was reported as the apparent KD.

E-box DNA = assay type: binding
Protocol: as §1, with “For DNA probe specificity experiments B-Z (100 nM), STR69 (1 μM), and STR640 (125 nM) and MAX (10 nM) were incubated with 1 nM IRD-labeled oligo and 0.01 mg/ml salmon sperm DNA for 30 minutes at RT in binding buffer. All samples were equilibrated to 4° C. for 15 minutes before loading onto 6% gel. Gels were imaged using an Odyssey Li-COR.” left out, “A four-parameter dose-response curve fit to a plot of normalized fraction bound DNA vs. log B-Z concentration yields an IC50 which was reported as the apparent KD.” left out

Trypsin = biological target: T1, Trypsin (Sus scrofa, UniProt P00761); assay: In vitro trypsin stability assay; assay type: in vitro ADME
T1 construct: purchased Thermo-Pierce
T1 sequence (P00761 9-231): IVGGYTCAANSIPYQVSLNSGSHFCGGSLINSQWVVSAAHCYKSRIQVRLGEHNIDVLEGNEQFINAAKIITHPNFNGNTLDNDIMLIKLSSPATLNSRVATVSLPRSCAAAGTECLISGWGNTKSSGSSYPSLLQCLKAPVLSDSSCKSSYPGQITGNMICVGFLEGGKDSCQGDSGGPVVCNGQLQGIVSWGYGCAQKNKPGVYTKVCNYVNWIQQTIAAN
Protocol: Each STR, 30 μM, was dissolved in 330 μL of 20 mM phosphate buffer pH 7.4 in a microcentrifuge tube and heated to 37° C. on a tabletop shaker (500 rpm). 30 μL of the reaction mixture was added to 60 uL of quenching solution (ACN+3% formic acid with 500 nM fmoc-lysine-OH internal standard) for 0 s timepoint sample. Thermo-Pierce MS-Grade Trypsin was added to a final concentration of 0.5 μg/ml and additional 30 μL aliquots were quenched at indicated timepoints. Quenched samples were cooled to 4° C. and centrifuged at 20,000×G for 3 min. […] Intact STR was calculated by normalizing the background subtracted integrated area under the curve for the EIC of (M+4H)/4, ±0.5 mass units, where M is mass and H is hydrogen ion, to the integrated area under the curve for the A280 peak of the internal standard. Fraction intact STR was calculated by dividing the intact STR by the normalized STR signal in the initial 0 s sample. GraphPad Prism was used to plot fraction intact STR vs time, and the proteolytic half-life was derived using a non-linear one-phase decay with the plateau constant set equal to zero.

[2] = Solubility in RPMI media+10% FBS; assay type: physicochemical; conditions: RPMI media with 10% FBS, read-out: soluble concentration
[3] = Circular dichroism spectroscopy; assay type: physicochemical; conditions: 25-85° C.
Protocol: Lyophilized STR samples were resuspended in 20 mM phosphate buffer pH 7.4 and diluted to 10 μM. Circular dichroism spectra were obtained on a Jasco J-170 using a 0.1 cm quartz cuvette with the following settings: wavelength, 260-180 nm; data pitch, 1.0 nm; scan rate, 50 nm min^−1; accumulations, 3; temperature, 25-85° C. with 6° C. increments. Means-Movement smoothing at the lowest setting was applied to the recorded data.

E-box probe = assay: Conditioned media binding assay (retained E-box binding by EMSA); assay type: in vitro ADME; conditions: HeLa conditioned media, 37° C.
Protocol: HeLa cells were grown to 90% confluency in a 6 cm plate and the media was collected. 10 μM STR was resuspended in 0.5 mL of the conditioned media and incubated with gentle shaking at 37° C. At 0, 24 and 48 hrs., treatment media (2 μL) was diluted into 48 μL of 1× EMSA binding buffer containing 5 nM E-box probe. DNA binding was measured using an electrophoretic mobility shift assay. Fraction bound to E-box probe was calculated by dividing the band intensity of bound DNA by the sum of the bound DNA+free DNA.

[4] = test system: E-box oligonucleotide probe; assay: DNA competition (specificity) EMSA with unlabeled competitor oligo; assay type: binding; conditions: 25 nM STR116, 10 nM STR118, or 5 nM MAX; 0-625 nM competitor
Protocol: as §1

binding to the E-box motif [1]: minimal binding
Substance: Ac-LRLKINSRERKRMHDLNIAMDK(ButMal)LREVMP-NH2 + Ac-SKIATLCLARNYILMLTNSL-NH2 (chain 1 XRLKINSRERKRMHDLNIAMDXLREVMX; chain 2 XKIATLCLARNYILMLTNSX; not fully specified; ButMal ligation; N-acetyl; C-terminal amides; (1)..(1) Xaa is acetyl-L; (22)..(22) Xaa is K(ButMal) (butyrlmaleimide-lysine); (28)..(28) Xaa is P-NH2; (1)..(1) Xaa is acetyl-S; (20)..(20) Xaa is L-NH2) [STR69]
DNA motif specificity [1]: show specificity for the OLIG2- and TFAP4-preferred motifs (target sequences in E3 and E2, respectively)

binding to the E-box motif [1]: minimal binding
Substance: Ac-RREIANSNERRRMQSINAGFQK(GlyMal)LKTLIP-NH2 + Ac-SKAAILCQTAEYIFRLRRKIHTLE-NH2 (chain 1 XREIANSNERRRMQSINAGFQXLKTLIX; chain 2 XKAAILCQTAEYIFRLRRKIHTLX; GlyMal ligation; N-acetyl; C-terminal amides; (1)..(1) Xaa is acetyl-R; (22)..(22) Xaa is K(GlyMal) (glycylmaleimide-lysine); (28)..(28) Xaa is P-NH2; (1)..(1) Xaa is acetyl-S; (24)..(24) Xaa is E-NH2) [STR640]
DNA motif specificity [1]: show specificity for the OLIG2- and TFAP4-preferred motifs (target sequences in E3 and E2, respectively)

stability in conditioned media (in words) (E-box probe): increased stability in conditioned media
Substance: I: Ac-PRFQSA[S5]DKR[S5]HHNALERKRRDHIKDSFHKLRDSVP-NH2 / II: Ac-SRAQILCKATEYIQYLR[S5]KIH[S5]LE-NH2 (staple I:7-I:11, II:18-II:22; linker I:30-II:7 via X1) [STR118, Ac-PRFQSA(S5)DKR(S5)HHNALERKRRDHIKDSFHK(GlyMal)LRDSVP-NH2 + Ac-SRAQILCKATEYIQYLR(S5)KIH(S5)LE-NH2]
thermal stability by temperature-dependent CD [3]: highly thermally stable, with retention of helicity even at 85 °C

stability in conditioned media (in words) (E-box probe): increased stability in conditioned media
Substance: I: Ac-PRFQSA[S5]DKR[S5]HHNALERKRRDHIKDSFHKLRDSVP-NH2 / II: Ac-SR[Aib]QILCQATEYIQ[S5][Nle]RR[S5]LHTHE-NH2 (staple I:7-I:11, II:15-II:19; linker I:30-II:7 via X1) [STR116, Ac-PRFQSA(S5)DKR(S5)HHNALERKRRDHIKDSFHK(GlyMal)LRDSVP-NH2 + Ac-SR(Aib)QILCQATEYIQ(S5)(Nle)RR(S5)LHTHE-NH2]

Further lines, the substance ahead of its results:

Substance: I: Ac-KRAHHNALERKRRDHIKDSFHKLRDSVP-NH2 / II: Ac-SRAQILCKATEYIQY[Nle]RRKN-NH2 (linker I:22-II:7 via X1) [B-Z]
EMSA Fraction bound (sDBD = 500 nM) (E-box DNA): 100%
trypsin proteolysis (in words) (Trypsin; LC-MS): rapidly proteolyzed at several positions

Substance: I: Ac-PRFQSA[S5]DKR[S5]HHNALERKRRDHIKDSFHKLRDSVP-NH2 / II: Ac-SRAQILCKATEYIQRLR[S5]KIR[S5]LE-NH2 (staple I:7-I:11, II:18-II:22; linker I:30-II:7 via X1) [B11-Z80]
solubility [2]: > 75 µM

Substance: I: Ac-PRFQSA[S5]DKR[S5]HHNALERKRRDHIKDSFHKLRDSVP-NH2 / II: Ac-SR[Aib]QILCQATEYIQSLRR[S5]IHT[S5]E-NH2 (staple I:7-I:11, II:19-II:23; linker I:30-II:7 via X1) [B11-Z70]
solubility [2]: > 75 µM

Substance: MAX: Human MAX (residues 22-102) protein expressed with N-terminal hexahistidine tag, used in homodimeric form
competition by DNA in which the E-box had been replaced entirely [4]: no competition
competition by DNA with mutation of the two central E-box nucleotides (CG to TA) [4]: some competition
competition of E-box probe binding by excess unlabeled E-box oligonucleotide [4]: effectively competed
half-life in trypsin stability assay (Trypsin; 0.5 μg/ml trypsin, 37° C.): 20 s
